Consider two compounds from ChEMBL document CHEMBL1157045, “Study of a cyclopamine glucuronide prodrug for the selective chemotherapy of glioblastoma” (Eur J Med Chem, 2010).

Structures are written as SMILES. Activity calls are given as the source filed them. The rule behind the calls is not given here.

Experiment [1] in a line: Cytotoxicity against human U87 cells assessed as viability in presence of beta glucuronidase. As to conditions: U-87 MG. It is filed as functional, cell-based, U-87MG ATCC.
The next experiment deals with U-87MG ATCC. In words: Cytotoxicity against human U87 cells assessed as viability at 200 uM after 5 days by MTS assay. It is filed as functional, cell-based.

As for `CC1=C2C[C@H]3[C@@H](CC=C4C[C@@H](O)CC[C@@]43C)[C@@H]2CC[C@]12O[C@@H]1C[C@H](C)CN[C@H]1[C@H]2C` [CYCLOPAMINE], the IC50 in experiment [1] amounted to 15.5 µM.
As to `CC1=C2C[C@H]3[C@@H](CC=C4C[C@@H](O)CC[C@@]43C)[C@@H]2CC[C@]12O[C@@H]1C[C@H](C)CN(C(=O)OCc3ccc(O[C@@H]4O[C@H](C(=O)O)[C@@H](O)[C@H](O)[C@H]4O)c([N+](=O)[O-])c3)[C@H]1[C@H]2C`, in the experiment with U-87MG ATCC, the outcome was inactive. The IC50 in experiment [1] came to 21 µM.
